# Columns and labels:
# Assay type in all cases: cell-based
# [1] = molecular target: T1, human GLP-1 receptor (Homo sapiens, UniProt P43220); assay: cAMP response of HEK-293 cells stably expressing human GLP-1 receptor (HTRF); settings: Table 6; read-out: EC50 hGLP-1R
# T1 construct: expressed in transfected cells; host or cells: HEK-293
# Method: (§1) For preparation, cells were split into T175 culture flasks and grown overnight to near confluency in medium (DMEM/10% FBS). Medium was then removed and cells washed with PBS lacking calcium and magnesium, followed by proteinase treatment with accutase (Sigma-Aldrich cat. no. A6964). Detached cells were washed and resuspended in assay buffer (1×HBSS; 20 mM HEPES, 0.1% BSA, 2 mM IBMX) and cellular density determined. They were then diluted to 400000 cells/ml and 25 μl-aliquots dispensed into the wells of 96-well plates. For measurement, 25 μl of test compound in assay buffer was added to the wells, followed by incubation for 30 minutes at room temperature. […] Potencies of peptidic compounds at the GLP-1, glucagon and GIP receptors were determined by exposing cells expressing human glucagon receptor (hGlucagon R), human GIP receptor (hGIP-R) or human GLP-1 receptor (hGLP-1R) to the listed compounds at increasing concentrations and measuring the formed cAMP as described in Methods.
# [2] = molecular target: T2, human GIP receptor (Homo sapiens, UniProt P48546); assay: cAMP response of HEK-293 cells stably expressing human GIP receptor (HTRF); settings: Table 6; read-out: EC50 hGIP-R
# T2 construct: expressed in transfected cells; host or cells: HEK-293
# T2 sequence (P48546 22-466): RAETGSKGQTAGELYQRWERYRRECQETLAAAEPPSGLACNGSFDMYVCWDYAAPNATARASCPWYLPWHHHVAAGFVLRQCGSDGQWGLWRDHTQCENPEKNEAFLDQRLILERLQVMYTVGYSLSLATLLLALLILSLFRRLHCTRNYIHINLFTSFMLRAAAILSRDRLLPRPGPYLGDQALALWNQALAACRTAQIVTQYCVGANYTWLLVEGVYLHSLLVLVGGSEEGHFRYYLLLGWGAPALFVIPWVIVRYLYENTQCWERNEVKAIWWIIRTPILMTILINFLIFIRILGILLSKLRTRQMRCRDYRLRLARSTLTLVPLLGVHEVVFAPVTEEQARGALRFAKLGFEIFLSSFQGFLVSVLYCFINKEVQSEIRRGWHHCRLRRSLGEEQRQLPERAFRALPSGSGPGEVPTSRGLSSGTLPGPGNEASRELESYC
# Method: as §1
# [3] = molecular target: T3, human glucagon receptor (Homo sapiens, UniProt P47871); assay: cAMP response of HEK-293 cells stably expressing human glucagon receptor (HTRF); settings: Table 6; read-out: EC50 hGlucagon-R
# T3 construct: expressed in transfected cells; host or cells: HEK-293
# T3 sequence (P47871 26-477): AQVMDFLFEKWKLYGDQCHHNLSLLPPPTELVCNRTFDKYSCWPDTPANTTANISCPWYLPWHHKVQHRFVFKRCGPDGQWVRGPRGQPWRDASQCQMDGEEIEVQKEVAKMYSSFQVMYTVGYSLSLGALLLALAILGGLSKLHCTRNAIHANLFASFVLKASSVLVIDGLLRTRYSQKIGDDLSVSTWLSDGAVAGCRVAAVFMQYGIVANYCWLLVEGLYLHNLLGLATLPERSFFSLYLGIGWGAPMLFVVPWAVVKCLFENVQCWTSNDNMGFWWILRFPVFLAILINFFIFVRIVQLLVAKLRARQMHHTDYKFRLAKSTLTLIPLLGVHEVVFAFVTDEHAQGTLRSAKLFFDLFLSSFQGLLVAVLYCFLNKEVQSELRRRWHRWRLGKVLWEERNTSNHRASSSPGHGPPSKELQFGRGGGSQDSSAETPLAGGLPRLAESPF
# Method: as §1
# T1 sequence (P43220 24-463): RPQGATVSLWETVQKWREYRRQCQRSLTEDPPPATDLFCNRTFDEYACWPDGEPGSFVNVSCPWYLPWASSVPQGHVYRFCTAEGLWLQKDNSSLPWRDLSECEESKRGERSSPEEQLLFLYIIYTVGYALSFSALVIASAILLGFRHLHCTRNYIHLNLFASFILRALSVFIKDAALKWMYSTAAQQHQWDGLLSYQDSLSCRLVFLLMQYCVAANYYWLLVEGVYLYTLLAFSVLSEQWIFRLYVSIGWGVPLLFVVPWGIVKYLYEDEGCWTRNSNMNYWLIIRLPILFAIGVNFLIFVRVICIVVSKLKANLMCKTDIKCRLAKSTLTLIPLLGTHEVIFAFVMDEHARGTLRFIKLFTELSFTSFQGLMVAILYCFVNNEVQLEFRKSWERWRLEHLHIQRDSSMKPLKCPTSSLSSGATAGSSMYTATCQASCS
compound,measurement,setting,value
"CCCCCCCCCCCCCCCC(=O)N[C@@H](CCC(=O)N[C@@H](CCC(=O)NCCCC[C@H](NC(=O)[C@H](CCC(N)=O)NC(=O)[C@H](CCCCN)NC(=O)[C@H](CO)NC(=O)[C@H](CC(C)C)NC(=O)[C@H](CC(=O)O)NC(=O)[C@H](CO)NC(=O)[C@@H](NC(=O)[C@H](Cc1ccccc1)NC(=O)[C@@H](NC(=O)CNC(=O)[C@H](CCC(N)=O)NC(=O)[C@@H](CO)NC(=O)[C@@H](N)Cc1c[nH]cn1)[C@@H](C)O)[C@@H](C)O)C(=O)N[C@@H](CCC(=O)O)C(=O)N[C@@H](CCC(=O)O)C(=O)N[C@@H](CCC(=O)O)C(=O)N[C@@H](C)C(=O)N[C@@H](C)C(=O)N[C@@H](CCCNC(=N)N)C(=O)N[C@@H](CC(C)C)C(=O)N[C@@H](Cc1ccccc1)C(=O)N[C@H](C(=O)N[C@@H](CCC(=O)O)C(=O)N[C@@H](Cc1c[nH]c2ccccc12)C(=O)N[C@@H](CC(C)C)C(=O)NC(C)(C)C(=O)N[C@@H](C)C(=O)NCC(=O)NCC(=O)N1CCC[C@H]1C(=O)N[C@@H](CO)C(=O)N[C@@H](CO)C(=O)NCC(=O)N[C@@H](C)C(=O)N1CCC[C@H]1C(=O)N1CCC[C@H]1C(=O)N1CCC[C@H]1C(=O)N[C@@H](CO)C(N)=O)[C@@H](C)CC)C(=O)O)C(=O)O [SEQ ID NO: 16, H-dSer-Q-G-T-F-T-S-D-L-S-K-Q-K(γE-γE-x53)-E-E-E-A-A-R-L-F-I-E-W-L-Aib-A-G-G-P-S-S-G-A-P-P-P-S-NH2]",EC50,[1],0.0018 nM
same,EC50,[2],7.78 nM
same,EC50,[3],0.0354 nM
"CCCCCCCCCCCCCCCC(=O)N[C@@H](CCC(=O)N[C@@H](CCC(=O)NCCCC[C@H](NC(=O)[C@H](CCC(N)=O)NC(=O)[C@H](CCCCN)NC(=O)[C@H](CO)NC(=O)[C@H](CC(C)C)NC(=O)[C@H](CC(=O)O)NC(=O)[C@H](CO)NC(=O)[C@@H](NC(=O)[C@H](Cc1ccccc1)NC(=O)[C@@H](NC(=O)CNC(=O)[C@H](CCC(N)=O)NC(=O)[C@H](CO)NC(=O)[C@@H](N)Cc1c[nH]cn1)[C@@H](C)O)[C@@H](C)O)C(=O)N[C@@H](CC(=O)O)C(=O)N[C@@H](CCC(=O)O)C(=O)N[C@@H](CCC(=O)O)C(=O)N[C@@H](C)C(=O)N[C@@H](C)C(=O)N[C@@H](CCCNC(=N)N)C(=O)N[C@@H](CC(C)C)C(=O)N[C@@H](Cc1ccccc1)C(=O)N[C@H](C(=O)N[C@@H](CCC(=O)O)C(=O)N[C@@H](Cc1c[nH]c2ccccc12)C(=O)N[C@@H](CC(C)C)C(=O)NC(C)(C)C(=O)N[C@@H](C)C(=O)NCC(=O)NCC(=O)N1CCC[C@H]1C(=O)N[C@@H](CO)C(=O)N[C@@H](CO)C(=O)NCC(=O)N[C@@H](C)C(=O)N1CCC[C@H]1C(=O)N1CCC[C@H]1C(=O)N1CCC[C@H]1C(=O)N[C@@H](CO)C(N)=O)[C@@H](C)CC)C(=O)O)C(=O)O [SEQ ID NO: 11, H-S-Q-G-T-F-T-S-D-L-S-K-Q-K(γE-γE-x53)-D-E-E-A-A-R-L-F-I-E-W-L-Aib-A-G-G-P-S-S-G-A-P-P-P-S-NH2]",EC50,[1],0.0012 nM
same,EC50,[2],0.56 nM
same,EC50,[3],0.0051 nM

# From US9758561B2 (priority 2014, dated 2017)
